`CN1CCC2(C#N)C(C1)C1CN(C)C2C=C1C(=O)c1ccccc1` (stereo not drawn) showed a melting point of 120 to 139 °C. `COc1ccccc1-c1cccc2c1OC(CN)CN2C` (stereo not drawn) showed a melting point of 90 °C. `O=c1[nH]c2cc([N+](=O)[O-])c(S(=O)(=O)NCCO)cc2[nH]c1=O` showed a melting point of 281 to 289 °C. Work on `CCOC(=O)c1cn(Cc2ccccc2)nc1OCc1ccc(OCc2nc(-c3ccco3)oc2C)c(OCOC)c1` yielded a melting point of 120 to 121 °C. `COc1cc2c(cc1Br)CCC2=O` gave a melting point of 149 to 151 °C. In the case of `CC(C)Oc1cc(CCCOc2ncccc2CC(=O)O)n(Cc2ccc(Cl)cc2OC(C)C)n1`, the melting point is reported as 82 to 84 °C. In the case of `N#CN1CCc2cccc(Cl)c2CC1`, the melting point is reported as 81 to 82 °C. `CCNCC1CN(c2c(F)cc3c(=O)c(C(=O)O)cn(C4CC4)c3c2F)CC1C` (stereo not drawn) showed a melting point of 224 to 226 °C. Work on `O=C(C=Cc1ccccc1)Oc1ccc2ccccc2c1` yielded a melting point of 99 to 101 °C. In the case of `N#Cc1ccc(F)c(C2=Nc3ccc(-c4ccccc4F)cc3NC(=O)C2)c1`, the melting point is reported as 239 °C. `CC(=O)Nc1cccc2c1CN(c1ccc3ccn(C)c3c1)C2=O` gave a melting point of 180 to 184 °C. With `COc1cc(C=C(C)[N+](=O)[O-])c(OC)c(C)c1C` the melting point was 76 to 81 °C. `COc1cc(COc2cc(/C=C/C(=O)O)n(-c3ccccc3)n2)ccc1OCc1nc(-c2ccco2)oc1C` showed a melting point of 191 to 192 °C. In the case of `CS(=O)(=O)c1ccc(-c2oc(C(=O)O)cc(=O)c2Oc2ccc(Cl)cc2)cc1`, the melting point is reported as 263 °C. `CC=CC(C)=C1C(=O)OC(=O)C1c1cc(C)n(-c2ccc(C)cc2)c1C` (stereo not drawn) showed a melting point of 129 °C. Work on `CC(C)(O)C#Cc1ncn2c1[C@@H]1CCCN1C(=O)c1ccccc1-2` yielded a melting point of 128 °C. `CCC(CC)NC(=O)C[C@@H](C(=O)NC[C@@H](O)[C@@H](N)Cc1ccccc1)C(C)(C)C` showed a melting point of 155 to 158 °C. For `CCCCCCCCCCCCCCCCC(N)CO` (stereo not drawn), the melting point was 80.8 to 81.9 °C. With `CC1CCN(c2ccccc2C(C)C(C(N)=O)c2ccc(C(=O)O)cc2)CC1` (stereo not drawn) the melting point was 173 to 175 °C. For `Cc1c(-c2ccccc2)sc2ccc(Cl)cc12`, the melting point was 108 to 110 °C. `CC(O)c1cc2c(Cl)cc(F)c(-n3c(=O)cc(C(F)(F)F)n(C)c3=O)c2o1` (stereo not drawn) showed a melting point of 154 to 157 °C. With `CC(C)CC(=O)Nc1c(C(=O)C2CCCCC2)[nH]c2cc(Cl)ccc12` the melting point was 209 to 215 °C. For `COc1cccc(CN(CC(=O)O)Cc2ccccc2)c1`, the melting point was 177 to 179 °C. `CCCCCCCNC(=O)Nc1ccc(NC(C)=O)cc1C(=O)NC1CCN(C(c2ccccc2)c2ccccc2)CC1` showed a melting point of 113 to 115 °C. For `CC1(CCl)Oc2ccc([N+](=O)[O-])cc2O1` (stereo not drawn), the melting point was 72 to 73 °C. `Cc1nc2ccc(C(C)(C)CNC=O)cc2[nH]1` gave a melting point of 57 to 60 °C. In the case of `C=C1N(C(C)C)C(=O)OC12CCN(C(=O)NC(=O)c1cccnc1Cl)CC2`, the melting point is reported as 186 to 188 °C. Work on `O=S(=O)(NCCCCCCCCCCCCBr)c1ccc(Cl)cc1` yielded a melting point of 70 to 73 °C. In the case of `C=CC(=O)Oc1ccc(-c2cccc(OC(=O)C=C)c2)cc1`, the melting point is reported as 63.6 °C. In the case of `CC(=O)NCC1CN(c2ccc(N3CCC(C(C#N)CO)CC3)c(F)c2)C(=O)O1` (stereo not drawn), the melting point is reported as 136 to 138 °C. For `CC(C)=NOCC(C)OC(=O)COc1ccc(Cl)c2cccnc12` (stereo not drawn), the melting point was 102 °C. `CCOC(Cc1ccc(OCc2nc(C(C)(C)C)oc2C)c2ccccc12)C(=O)O` (stereo not drawn) showed a melting point of 185 to 186 °C. In the case of `Cc1cc(Br)cnc1CCCn1nnc2cc(Cc3cccnc3)cnc21`, the melting point is reported as 109 to 110 °C. For `O=C(NCc1ccc(Cl)cc1)c1cnc2cc(C(F)(F)F)c(SCc3ccccc3)cc2c1O`, the melting point was 185 to 188 °C. Work on `S=c1n(N=Cc2ccccc2)ccn1N=Cc1ccccc1` yielded a melting point of 215 to 218 °C. With `O=C(c1cc(-c2ccccc2)c(=O)n2c1-c1ccccc1C2)N1CCSCC1` the melting point was 266 to 268 °C. With `CC(C)(C)C(NC(=O)Nc1ccccc1F)NC(=O)c1ccc(Cl)cc1` (stereo not drawn) the melting point was 229 to 230 °C. For `CCC(=O)C1(Nc2ccccc2)CCN(CCc2ccccc2)CC1`, the melting point was 106 °C. `COc1ccc2c3c(c(=O)oc2c1)CN(Cc1ccccc1Cl)CC3` gave a melting point of 137 to 139 °C. Compound `CC(C)(C)c1cc(C=O)c(O)c(C(F)(F)F)c1` has a melting point of 56 to 57.5 °C. For `CCS(=O)(=O)Nc1cccc2c1N=C(c1ccc(-n3c(C)nc4cnccc43)cc1)CC(=O)N2`, the melting point was 258 to 260 °C. Work on `COc1cc(N)c(Cl)cc1C(=O)NC1CNCCn2c1nc(-c1ccncn1)cc2=O` (stereo not drawn) yielded a melting point of 277 to 279 °C. For `Cc1ccc(SN(C)C=Nc2ccc(Cl)cc2C)cc1`, the melting point was 49 to 50.5 °C. `CCOC(=O)C1=C[C@@H](OC(CC)CC)[C@H](NC(C)=O)[C@@H](N=[N+]=[N-])C1` showed a melting point of 115 to 117 °C. Work on `Cc1nc2c3c(ccc2[nH]1)[C@@H](O)[C@H](O)[C@@H](c1ccccc1)O3` yielded a melting point of 163 °C. `O=C(c1ccc(-c2ccccc2)cc1)N1Cc2ccccc2Oc2ccccc21` gave a melting point of 93 to 95 °C. `N#Cc1cccc2c1CCCc1ccccc1-2` showed a melting point of 109 to 111 °C. In the case of `O=C1Nc2ccc(Br)cc2C1c1ncnc2c1cnn2C1CCCCC1` (stereo not drawn), the melting point is reported as 305 to 308 °C. Compound `N#Cc1ccccc1NC(=O)C(=O)N1CCC(Cc2ccc(F)cc2)CC1` has a melting point of 101 to 103 °C. Compound `Cc1nc2ccc(F)cc2c2c1ncn2C` has a melting point of 184 to 186 °C. `CS(=O)(=O)c1ccc(-c2cc(CO[N+](=O)[O-])nn2CC2CCCCC2)cc1` showed a melting point of 98 to 99 °C. `CCC(C)N1CC(C)=CC2=C1N1CN(OC)C=C1N=N2` (stereo not drawn) gave a melting point of 157 to 159 °C. Compound `COc1cccc2c1oc1c(N)n(C)nc12` has a melting point of 186 to 188 °C. In the case of `COC1C(O)C(CO)OC1n1cc(C)c(=O)[nH]c1=O` (stereo not drawn), the melting point is reported as 192 to 193 °C. With `Cc1cc2cc(P(=O)(O)O)c(=O)[nH]c2cc1C` the melting point was > 300 °C. `COc1ccc(C(=O)COc2ccc(C(=O)OCc3ccccc3)c(O)c2)cc1C(C)(C)C` gave a melting point of 98 to 99 °C. With `COC(=O)CCCC(=O)Nc1ccc(-c2ccc(C#N)cc2)cc1` the melting point was 171 to 173 °C. `CCOC(=O)c1cn(-c2cccnc2)nc1N` showed a melting point of 140 to 141 °C. In the case of `COc1ccc(Sc2ccc3c(c2)OCC(=O)N3)cc1OC`, the melting point is reported as 97 to 98 °C. `CC(C(=O)O)c1ccc2oc(Cc3c(Cl)cccc3Cl)nc2c1` (stereo not drawn) gave a melting point of 122 to 124 °C. With `Brc1ccc(C#Cc2c3ccccc3c(C#Cc3ccc(Br)cc3)c3ccccc23)cc1` the melting point was 305 °C. In the case of `CC(C)OC(=O)c1cc(F)c(Cl)cc1Cl`, the melting point is reported as 35 °C. `O=c1[nH]c(=O)n(Cc2cccc(OCc3csc(-c4ccccc4)n3)c2)o1` showed a melting point of 139 to 140 °C. With `CC1(C)OC(c2ccc(S(C)(=O)=O)cc2)=C(c2ccc(O)cc2)C1=O` the melting point was 150 to 152 °C. In the case of `COC(=O)[C@H](CC(=O)OC(C)(C)C)NC(=O)c1cccc(NC(=O)OCc2ccccc2)c1`, the melting point is reported as 115 to 116 °C. In the case of `O=c1[nH]nc(-c2ccc(NN=C(c3ccccc3)c3ccc(O)cc3O)cc2)c2ccccc12`, the melting point is reported as 160 to 170 °C. With `O=C(NCc1ccn(-c2cc3c(cc2[N+](=O)[O-])[nH]c(=O)c(=O)n3C2CCCCC2)c1)Nc1ccncc1` the melting point was > 200 °C. Compound `COC(=O)CC1CCN(CCC=C(c2ccccc2)c2ccccc2)C1` (stereo not drawn) has a melting point of 95.5 to 97.5 °C. `COC(=O)C[C@H](CC(=O)O[Si](C)(C)C(C)(C)C)O[Si](C)(C)C(C)(C)C` gave a melting point of 44 to 46 °C. Work on `CCCOC(Cc1ccc(OCCc2nc(C3CC3)oc2C)c2ccsc12)C(=O)O` (stereo not drawn) yielded a melting point of 61 to 63 °C. In the case of `O=[N+]([O-])c1ccc2c(c1)OC(CO)(CO)O2`, the melting point is reported as 111 to 113 °C. `COc1ccc(C(=O)Sc2ccc(C(=O)O)cc2)cc1C12CC3CC(CC(C3)C1)C2` gave a melting point of 264 °C. `CC(C)c1cccc(C(C)C)c1NC(=O)CN1CCCN(CCCSc2nc3ccccc3o2)CC1` showed a melting point of 109 to 111 °C. `CC(Oc1ccc(-c2ccc(F)c(C#N)c2)cc1)C(O)CCc1cccnc1` (stereo not drawn) gave a melting point of 108 to 109 °C. With `Cn1cnc(COc2nn3c(-c4ccc(F)cc4F)nnc3cc2C2(C)CCCCC2)n1` the melting point was 156 °C. Work on `[N-]=[N+]=NS(=O)(=O)c1cccc(C(=O)Cl)c1` yielded a melting point of 41 °C. With `COc1ccc(Br)c(OC)c1C#N` the melting point was 113 to 115 °C. In the case of `CC[C@H](C)[C@H](OCc1ccccc1)[C@H]1[C@H]([N+](=O)[O-])[C@H](C2CC2)N[C@@H]1C(=O)O`, the melting point is reported as 159 to 161 °C. With `O=C(NCC1(c2ccccc2)CCCCC1)Nc1ccc(Cl)c(Cl)c1` the melting point was 180 to 181 °C. With `CCOC(=O)CCc1nc2cccnc2n(-c2cccc(NC(=O)Nc3ccccc3OC)c2)c1=O` the melting point was 175 °C. `COC1(c2cc(F)cc(OCc3nc(-c4ccc(F)cc4)c(-c4ccc(S(N)(=O)=O)cc4)o3)c2)CCOCC1` gave a melting point of 70 to 72 °C. For `COc1ccc2c(c1)c(C(C)C(=O)O)cc(=O)n2Cc1ccccc1Cl` (stereo not drawn), the melting point was 187 to 188 °C. `O=C(Nc1cc(-c2ccnc3c(C(=O)c4cccs4)cnn23)ccc1Cl)c1ccccc1` gave a melting point of 217 to 218 °C. For `CCOc1ccnc2c1c(C(C)=O)cn2S(=O)(=O)c1ccccc1`, the melting point was 151 to 153 °C. For `CC(=O)Nc1nc2c(Oc3cc(-c4ccc(C(F)(F)F)cc4NCc4cncn4C)ncn3)cccc2s1`, the melting point was 263 to 265 °C. With `CC(C)(C)NC(=O)[C@@H]1CSCN1C[C@@H](O)[C@H](Cc1ccccc1)NC(=O)OCc1ccccc1` the melting point was 62 to 65 °C. With `COc1ccc(CC(=O)NC(NC(=NC#N)Nc2ccccc2Cl)C(C)(C)C)cc1OC` (stereo not drawn) the melting point was 135 to 136 °C. Compound `COc1ccc(COc2cccc(C#CC(=O)c3ccccc3)c2)cc1` has a melting point of 79 to 80 °C. In the case of `CS(=O)(=O)OCCCCCc1ccc(OCc2coc(/C=C/c3ccccc3)n2)cc1`, the melting point is reported as 105 to 106 °C. Work on `O=C(CNCCO)Nc1cccc([N+](=O)[O-])c1` yielded a melting point of 145 to 147 °C. Compound `Nn1c(-c2ccccc2Cl)nnc1-c1ccccc1C(F)(F)F` has a melting point of 172 to 175 °C. Work on `CC(=O)OCc1c(Br)cccc1[N+](=O)[O-]` yielded a melting point of 36 to 37 °C. With `O=[N+]([O-])c1ccc(N2CCN(CCO)CC2)cc1` the melting point was 98 to 99 °C. In the case of `O=C(c1ccccc1O)c1cccc2[nH]ccc12`, the melting point is reported as 165 °C. For `O=C(Oc1ccc(F)cc1)Oc1ccc(F)cc1`, the melting point was 122 to 123 °C. `NCC1N=C(c2ccccc2F)c2ccccc2NC1=O` (racemic) gave a melting point of 168 to 169 °C. With `CCc1ccc2c(c1)C=Cc1cc(C)ccc1C2c1cn(-c2ccnc(N3CC(C(=O)Nc4nc(CC(=O)O)cs4)C3)n2)c(=O)[nH]c1=O` (stereo not drawn) the melting point was 235 °C. Work on `Clc1cccc(Cl)c1C=Nc1c2c(nc3ccccc13)CCCC2` yielded a melting point of 200 to 202 °C.
